Among the data in ChEMBL document CHEMBL5705888, “Substrate specificity and inhibitors of LRRK2, a protein kinase mutated in Parkinson's disease” (Biochem J, 2009) are residual activity values, retold here.

The target in experiment [1] is cAMP-dependent protein kinase (PKA) (Homo sapiens) (UniProt P22694+P17612+P22612). The experiment is described as follows: Inhibition of PKA (unknown origin) at 1 uM incubated for 30 mins in presence of [gamma-33P]ATP by multidrop micro reagent based assay relative to control; values are per cent of control.
The target in experiment [2] is MAP/microtubule affinity-regulating kinase 3 (Homo sapiens) (UniProt P27448). The experiment is described as follows: Inhibition of MARK3 (unknown origin) at 1 uM incubated for 30 mins in presence of [gamma-33P]ATP by multidrop micro reagent based assay relative to control; values are per cent of control.
Sequence of MAP/microtubule affinity-regulating kinase 3 (Homo sapiens) (P27448 whole entry, looked up): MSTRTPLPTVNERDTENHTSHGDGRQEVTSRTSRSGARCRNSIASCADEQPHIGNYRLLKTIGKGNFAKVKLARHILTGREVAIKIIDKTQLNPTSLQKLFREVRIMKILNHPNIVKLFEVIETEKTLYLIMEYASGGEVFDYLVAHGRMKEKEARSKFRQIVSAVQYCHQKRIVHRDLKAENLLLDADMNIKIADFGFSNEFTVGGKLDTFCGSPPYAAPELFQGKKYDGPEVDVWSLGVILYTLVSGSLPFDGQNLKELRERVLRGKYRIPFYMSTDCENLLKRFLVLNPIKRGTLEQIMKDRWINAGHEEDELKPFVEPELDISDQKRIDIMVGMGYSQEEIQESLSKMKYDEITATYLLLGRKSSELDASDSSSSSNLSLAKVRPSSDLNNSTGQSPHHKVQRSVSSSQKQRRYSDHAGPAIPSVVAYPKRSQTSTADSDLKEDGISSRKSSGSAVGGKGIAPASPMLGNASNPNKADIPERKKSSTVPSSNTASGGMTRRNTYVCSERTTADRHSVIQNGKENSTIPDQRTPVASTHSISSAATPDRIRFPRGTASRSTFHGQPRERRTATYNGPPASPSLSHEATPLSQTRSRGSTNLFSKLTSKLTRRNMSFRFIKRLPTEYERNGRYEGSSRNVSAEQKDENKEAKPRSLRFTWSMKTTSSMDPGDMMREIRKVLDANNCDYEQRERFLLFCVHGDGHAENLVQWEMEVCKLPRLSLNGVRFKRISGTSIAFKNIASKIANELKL
In experiment [3] the target is T1, Serine/threonine-protein kinase 3 (Homo sapiens) (UniProt Q13188).
T1 sequence (whole entry): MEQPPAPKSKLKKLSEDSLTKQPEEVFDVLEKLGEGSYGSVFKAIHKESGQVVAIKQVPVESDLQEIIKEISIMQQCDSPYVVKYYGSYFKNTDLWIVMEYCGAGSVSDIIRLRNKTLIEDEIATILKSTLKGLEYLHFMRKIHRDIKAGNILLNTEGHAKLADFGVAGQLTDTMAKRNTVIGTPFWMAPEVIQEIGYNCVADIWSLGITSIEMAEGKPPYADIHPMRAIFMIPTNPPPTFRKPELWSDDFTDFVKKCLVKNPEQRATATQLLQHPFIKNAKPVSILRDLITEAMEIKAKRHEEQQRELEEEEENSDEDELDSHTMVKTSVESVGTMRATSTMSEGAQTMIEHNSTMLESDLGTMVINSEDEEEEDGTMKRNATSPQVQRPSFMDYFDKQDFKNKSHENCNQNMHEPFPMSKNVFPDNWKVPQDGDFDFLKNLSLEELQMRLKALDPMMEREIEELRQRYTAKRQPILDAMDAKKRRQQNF
The experiment is described as follows: Inhibition of MST2 (unknown origin) at 1 uM incubated for 30 mins in presence of [gamma-33P]ATP by multidrop micro reagent based assay relative to control; values are per cent of control.

Experiment [4] addresses Calcium/calmodulin-dependent protein kinase kinase 2 (Homo sapiens) (UniProt Q96RR4). The experiment is described as follows: Inhibition of CaMKKbeta (unknown origin) at 1 uM incubated for 30 mins in presence of [gamma-33P]ATP by multidrop micro reagent based assay relative to control; values are per cent of control.
Experiment [5] deals with Serine/threonine-protein kinase PAK 5 (Homo sapiens) (UniProt Q9P286). Kind of experiment: Inhibition of PAK5 (unknown origin) at 1 uM incubated for 30 mins in presence of [gamma-33P]ATP by multidrop micro reagent based assay relative to control; values are per cent of control.
Sequence of Serine/threonine-protein kinase PAK 5 (Homo sapiens) (Q9P286 whole entry, looked up): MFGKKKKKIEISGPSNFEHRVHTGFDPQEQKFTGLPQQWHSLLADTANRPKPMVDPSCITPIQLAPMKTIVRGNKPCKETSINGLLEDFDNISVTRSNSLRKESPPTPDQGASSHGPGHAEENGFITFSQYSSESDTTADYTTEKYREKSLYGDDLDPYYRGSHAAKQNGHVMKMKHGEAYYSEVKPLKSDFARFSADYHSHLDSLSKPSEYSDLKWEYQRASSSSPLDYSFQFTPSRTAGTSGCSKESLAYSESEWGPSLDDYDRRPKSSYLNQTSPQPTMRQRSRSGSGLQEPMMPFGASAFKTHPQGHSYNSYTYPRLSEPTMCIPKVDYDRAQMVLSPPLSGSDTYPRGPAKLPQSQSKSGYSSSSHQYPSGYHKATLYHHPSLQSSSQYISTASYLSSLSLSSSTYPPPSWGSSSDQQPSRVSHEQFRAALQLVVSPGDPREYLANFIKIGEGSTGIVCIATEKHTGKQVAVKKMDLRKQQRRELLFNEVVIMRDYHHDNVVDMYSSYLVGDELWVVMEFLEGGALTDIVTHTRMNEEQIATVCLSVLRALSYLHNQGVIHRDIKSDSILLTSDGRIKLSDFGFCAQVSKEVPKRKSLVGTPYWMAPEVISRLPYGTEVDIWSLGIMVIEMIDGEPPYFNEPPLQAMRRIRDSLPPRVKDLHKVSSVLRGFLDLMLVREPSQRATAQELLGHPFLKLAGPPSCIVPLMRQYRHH
The target of experiment [6] is T2, Eukaryotic elongation factor 2 kinase (Homo sapiens) (UniProt O00418).
T2 sequence (whole entry): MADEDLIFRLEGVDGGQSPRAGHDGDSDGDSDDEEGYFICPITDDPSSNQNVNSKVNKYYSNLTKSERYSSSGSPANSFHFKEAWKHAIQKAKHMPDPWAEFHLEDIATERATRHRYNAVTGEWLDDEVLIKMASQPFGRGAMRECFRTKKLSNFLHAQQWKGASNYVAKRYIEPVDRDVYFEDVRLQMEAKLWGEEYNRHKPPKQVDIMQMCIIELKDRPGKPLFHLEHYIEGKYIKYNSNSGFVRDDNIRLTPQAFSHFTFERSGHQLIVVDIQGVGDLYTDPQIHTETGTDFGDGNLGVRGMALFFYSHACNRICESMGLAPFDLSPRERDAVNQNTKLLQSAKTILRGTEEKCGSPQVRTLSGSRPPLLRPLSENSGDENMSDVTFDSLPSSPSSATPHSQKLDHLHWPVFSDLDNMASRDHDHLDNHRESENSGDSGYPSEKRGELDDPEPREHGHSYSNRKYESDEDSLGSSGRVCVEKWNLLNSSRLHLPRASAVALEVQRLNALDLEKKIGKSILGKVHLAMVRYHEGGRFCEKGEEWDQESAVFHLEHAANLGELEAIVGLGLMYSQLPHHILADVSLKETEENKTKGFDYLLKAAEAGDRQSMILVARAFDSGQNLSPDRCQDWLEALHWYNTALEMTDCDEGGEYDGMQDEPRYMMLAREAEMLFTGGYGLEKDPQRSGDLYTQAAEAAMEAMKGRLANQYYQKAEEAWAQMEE
The experiment is described as follows: Inhibition of EF2K (unknown origin) at 1 uM incubated for 30 mins in presence of [gamma-33P]ATP by multidrop micro reagent based assay relative to control.

Experiment [7] has as its target T3, Dual specificity tyrosine-phosphorylation-regulated kinase 2 (Homo sapiens) (UniProt Q92630).
T3 sequence (whole entry): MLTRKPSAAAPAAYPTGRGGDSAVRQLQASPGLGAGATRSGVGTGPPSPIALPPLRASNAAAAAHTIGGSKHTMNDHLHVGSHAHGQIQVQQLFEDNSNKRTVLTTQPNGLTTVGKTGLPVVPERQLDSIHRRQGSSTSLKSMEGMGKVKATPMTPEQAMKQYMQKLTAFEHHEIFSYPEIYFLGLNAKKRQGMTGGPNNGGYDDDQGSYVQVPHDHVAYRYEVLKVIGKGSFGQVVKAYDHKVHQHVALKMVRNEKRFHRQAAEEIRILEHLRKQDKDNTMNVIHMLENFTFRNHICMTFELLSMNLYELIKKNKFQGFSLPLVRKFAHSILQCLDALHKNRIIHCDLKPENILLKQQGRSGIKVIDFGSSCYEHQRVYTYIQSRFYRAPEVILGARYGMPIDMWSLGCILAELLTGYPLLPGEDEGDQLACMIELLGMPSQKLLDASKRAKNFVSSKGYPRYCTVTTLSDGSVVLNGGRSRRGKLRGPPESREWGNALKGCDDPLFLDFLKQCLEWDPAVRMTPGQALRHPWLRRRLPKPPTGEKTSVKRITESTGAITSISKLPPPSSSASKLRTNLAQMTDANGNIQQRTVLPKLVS
The experiment is described as follows: Inhibition of DYRK2 (unknown origin) at 1 uM incubated for 30 mins in presence of [gamma-33P]ATP by multidrop micro reagent based assay relative to control; values are per cent of control.

Experiment [8] deals with Tyrosine-protein kinase Yes (Homo sapiens) (UniProt P07947). The experiment is described as follows: Inhibition of YES1 (unknown origin) at 1 uM incubated for 30 mins in presence of [gamma-33P]ATP by multidrop micro reagent based assay relative to control; values are per cent of control.
Sequence of Tyrosine-protein kinase Yes (Homo sapiens) (P07947 2-543 limits assumed): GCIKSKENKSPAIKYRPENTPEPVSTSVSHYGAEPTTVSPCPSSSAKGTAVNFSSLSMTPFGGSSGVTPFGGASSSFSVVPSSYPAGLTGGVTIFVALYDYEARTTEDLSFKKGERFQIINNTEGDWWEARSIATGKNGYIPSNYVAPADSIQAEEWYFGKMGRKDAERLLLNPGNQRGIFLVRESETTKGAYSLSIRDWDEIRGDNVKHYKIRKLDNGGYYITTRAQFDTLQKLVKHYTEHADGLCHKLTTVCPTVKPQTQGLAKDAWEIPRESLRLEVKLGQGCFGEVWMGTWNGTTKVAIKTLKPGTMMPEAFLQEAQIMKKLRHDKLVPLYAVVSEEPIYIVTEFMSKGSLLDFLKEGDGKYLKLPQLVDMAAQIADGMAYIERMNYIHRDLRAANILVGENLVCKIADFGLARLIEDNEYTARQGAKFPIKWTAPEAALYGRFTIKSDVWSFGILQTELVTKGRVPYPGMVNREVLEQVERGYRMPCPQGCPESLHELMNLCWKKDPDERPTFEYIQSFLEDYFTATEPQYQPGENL
Experiment [9] addresses Maternal embryonic leucine zipper kinase (Homo sapiens) (UniProt Q14680). The experiment is described as follows: Inhibition of MELK (unknown origin) at 1 uM incubated for 30 mins in presence of [gamma-33P]ATP by multidrop micro reagent based assay relative to control; values are per cent of control.

Sequence of Calcium/calmodulin-dependent protein kinase kinase 2 (Homo sapiens) (Q96RR4 2-588 limits assumed): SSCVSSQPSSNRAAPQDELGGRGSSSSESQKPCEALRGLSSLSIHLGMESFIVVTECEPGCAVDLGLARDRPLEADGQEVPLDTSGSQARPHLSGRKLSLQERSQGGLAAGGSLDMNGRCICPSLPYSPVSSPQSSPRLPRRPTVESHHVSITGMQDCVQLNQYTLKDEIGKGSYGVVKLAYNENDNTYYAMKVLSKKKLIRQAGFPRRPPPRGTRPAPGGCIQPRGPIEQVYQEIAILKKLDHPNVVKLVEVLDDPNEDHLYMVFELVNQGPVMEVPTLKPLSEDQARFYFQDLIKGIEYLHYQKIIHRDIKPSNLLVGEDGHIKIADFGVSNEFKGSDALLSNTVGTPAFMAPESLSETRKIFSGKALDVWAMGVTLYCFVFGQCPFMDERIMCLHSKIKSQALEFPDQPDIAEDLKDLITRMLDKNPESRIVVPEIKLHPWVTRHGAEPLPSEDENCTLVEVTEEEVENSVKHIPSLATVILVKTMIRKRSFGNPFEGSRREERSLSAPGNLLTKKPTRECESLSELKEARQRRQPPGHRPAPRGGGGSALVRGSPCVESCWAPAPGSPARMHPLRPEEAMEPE
Sequence of Maternal embryonic leucine zipper kinase (Homo sapiens) (Q14680 whole entry, looked up): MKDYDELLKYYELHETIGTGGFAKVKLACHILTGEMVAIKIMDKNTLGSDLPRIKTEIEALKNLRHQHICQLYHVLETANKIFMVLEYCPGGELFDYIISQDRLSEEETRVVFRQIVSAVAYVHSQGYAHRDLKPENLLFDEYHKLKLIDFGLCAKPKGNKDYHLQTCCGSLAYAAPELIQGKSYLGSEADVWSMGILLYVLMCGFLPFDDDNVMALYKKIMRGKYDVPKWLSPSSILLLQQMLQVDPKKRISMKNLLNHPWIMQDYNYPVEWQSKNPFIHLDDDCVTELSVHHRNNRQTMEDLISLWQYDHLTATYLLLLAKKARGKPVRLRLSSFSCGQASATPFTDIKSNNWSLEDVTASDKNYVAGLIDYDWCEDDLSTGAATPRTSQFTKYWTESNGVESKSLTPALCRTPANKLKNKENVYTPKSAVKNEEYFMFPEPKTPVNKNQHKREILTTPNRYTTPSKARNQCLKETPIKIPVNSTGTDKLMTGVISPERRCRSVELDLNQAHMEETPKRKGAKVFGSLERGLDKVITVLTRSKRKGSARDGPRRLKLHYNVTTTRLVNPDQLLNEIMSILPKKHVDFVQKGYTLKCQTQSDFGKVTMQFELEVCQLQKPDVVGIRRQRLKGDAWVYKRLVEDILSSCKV

As usually defined, the residual activity is the signal under treatment as a percentage of the control signal. Regarding `CCn1c(-c2nonc2N)nc2cnc(Oc3cccc(NC(=O)c4ccc(OCCN5CCOCC5)cc4)c3)cc21` [GSK-269962A], the residual activity stood at 22% in experiment [1]; 67% in experiment [2]; 98% in experiment [3]; 98% in experiment [4]; 102% in [5]; 113% in experiment [6]. Moreover, the results for the residual activity in experiment [7], in [8] and in experiment [9] were 64%, 114% and 44%, respectively.
With `CC1=C(C(=O)Nc2cc3cn[nH]c3cc2F)C(c2ccc(C(F)(F)F)cc2)CC(=O)N1` (centres undefined), the residual activity turned out to be 88% in experiment [1]; 98% in [2]; 108% in experiment [3]; 100% in [4]; 107% in experiment [5]; 99% in experiment [6]. Moreover, the residual activity in experiment [7] was found to be 92%; in experiment [8], 58%; in [9], 83%.
Consider `Cc1cncc2cccc(S(=O)(=O)N3CCCNC[C@@H]3C)c12`, for which the residual activity in experiment [1] was determined as 76%; in experiment [2], 56%; in [3], 41%; in experiment [4], 81%; in experiment [5], 100%; in experiment [6] it was 99%. Also, the figures for the residual activity in experiment [7], in experiment [8] and in experiment [9] were 84%, 76% and 70%, respectively.
Regarding `CCN(CC)CCNC(=O)c1c(C)[nH]c(/C=C2\C(=O)Nc3ccc(F)cc32)c1C`, the figures for the residual activity in [4] and in experiment [9] were 39% and 17%, respectively.
